Measurements: ChEMBL document CHEMBL1201862, “PubChem BioAssay data set” (2004)
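Following 48 hours of exposure in 96-well plates, responses at five concentrations were used to interpolate endpoints linearly. GI50 is the concentration that inhibits growth by half.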 Active and inactive are the calls of the source. Rule as the data show it: active = GI50 up to about 1.1 µM and inactive = higher.

Key:
Test in all cases: NCI anticancer screen, dose series, 48 h
SK-OV-3 = test system: SK-OV-3
M14 = test system: M14
IGROV-1 = test system: IGROV-1
HCT-116 = test system: HCT-116
NCI-H460 = test system: NCI-H460
SF-268 = test system: SF-268
OVCAR-8 = test system: OVCAR-8
COLO 205 = test system: COLO 205
NCI-H226 = test system: NCI-H226
U-251 = test system: U-251
UACC-62 = test system: UACC-62
RXF 393 = test system: RXF 393
SW-620 = test system: SW-620
SNB-75 = test system: SNB-75
OVCAR-3 = test system: OVCAR-3
RPMI-8226 = test system: RPMI-8226
SF-295 = test system: SF-295
HCC 2998 = test system: HCC 2998

Measured: GI50

Fc1ccc(C2SCc3nc4ccccc4n32)cc1 (stereo unspecified)
inactive: SK-OV-3 94.6 µM | M14 43.3 µM | IGROV-1 47.9 µM | HCT-116 32.4 µM | NCI-H460 34.4 µM | SF-268 54.3 µM | OVCAR-8 49 µM | COLO 205 57 µM | NCI-H226 37.4 µM | U-251 51.3 µM | UACC-62 > 10 µM | RXF 393 17.2 µM | SW-620 74.6 µM | SNB-75 3.1 µM | OVCAR-3 24.4 µM | RPMI-8226 26.4 µM | SF-295 40.7 µM

CC(C)C12Cc3c(ccc4ccccc34)OC1(C)Oc1ccc3ccccc3c1C2 (stereo unspecified)
inactive: SK-OV-3 > 100 µM | M14 > 100 µM | IGROV-1 > 100 µM | HCT-116 > 100 µM | NCI-H460 > 100 µM | SF-268 > 100 µM | OVCAR-8 > 100 µM | COLO 205 > 100 µM | NCI-H226 > 100 µM | U-251 > 100 µM | UACC-62 > 100 µM | RXF 393 > 100 µM | SW-620 > 100 µM | SNB-75 > 100 µM | OVCAR-3 59.7 µM | SF-295 > 100 µM

CCc1cc(Cc2cc(CC)c(NC(=O)C(=O)Cc3ccccn3)c(CC)c2Cl)c(Cl)c(CC)c1NC(=O)C(=O)Cc1ccccn1
inactive: SK-OV-3 > 100 µM | M14 75.2 µM | IGROV-1 > 100 µM | HCT-116 > 100 µM | HCC 2998 > 100 µM | NCI-H460 > 100 µM | SF-268 > 100 µM | OVCAR-8 > 100 µM | COLO 205 64 µM | NCI-H226 > 100 µM | U-251 19.4 µM | UACC-62 > 100 µM | SW-620 15.7 µM | SNB-75 > 100 µM | OVCAR-3 > 100 µM | RPMI-8226 > 100 µM | SF-295 > 100 µM

Cc1ccc(Nc2nc(C)c(C(/C=C/c3ccc(/C=C/C(=N/NC(=O)C[n+]4ccccc4)c4sc(Nc5ccc(C)cc5[N+](=O)[O-])nc4C)cc3)=N\NC(=O)C[n+]3ccccc3)s2)c([N+](=O)[O-])c1
inactive: SK-OV-3 > 100 µM | M14 > 100 µM | IGROV-1 > 100 µM | HCT-116 > 100 µM | HCC 2998 > 100 µM | NCI-H460 > 100 µM | SF-268 > 100 µM | OVCAR-8 > 100 µM | COLO 205 > 100 µM | NCI-H226 14.6 µM | U-251 > 100 µM | UACC-62 20.6 µM | RXF 393 > 100 µM | SW-620 > 100 µM | SNB-75 33.5 µM | OVCAR-3 > 100 µM | SF-295 > 100 µM

NCCNCc1c2ccccc2c(CNCCN)c2ccccc12
inactive: M14 16.3 µM | IGROV-1 32.3 µM | HCT-116 5.18 µM | HCC 2998 9.59 µM | NCI-H460 6.97 µM | SF-268 7.98 µM | OVCAR-8 13.2 µM | COLO 205 8.17 µM | U-251 22 µM | UACC-62 22 µM | RXF 393 15.7 µM | SW-620 11.1 µM | OVCAR-3 18.2 µM | SF-295 17.4 µM

CC1=C(C(=O)Nc2ccc(C)cc2)C(c2cccc([N+](=O)[O-])c2)C(C(=O)Nc2ccc(C)cc2)=C(C)N1
inactive: SK-OV-3 55.2 µM | M14 16.9 µM | IGROV-1 20.9 µM | HCT-116 35.6 µM | HCC 2998 30.6 µM | NCI-H460 19.7 µM | SF-268 16.1 µM | OVCAR-8 40 µM | COLO 205 14.1 µM | NCI-H226 69.5 µM | U-251 20.7 µM | UACC-62 13.3 µM | RXF 393 22.8 µM | SW-620 35.2 µM | SNB-75 16.7 µM | OVCAR-3 20 µM | SF-295 28.1 µM

Cc1cc(N(CCC#N)CCC#N)ccc1/N=N/c1ccccc1[N+](=O)[O-]
inactive: SK-OV-3 > 100 µM | M14 > 100 µM | IGROV-1 > 100 µM | HCC 2998 > 100 µM | SF-268 > 100 µM | OVCAR-8 > 100 µM | COLO 205 > 100 µM | NCI-H226 > 100 µM | U-251 > 100 µM | UACC-62 > 100 µM | RXF 393 > 100 µM | SW-620 > 100 µM | SNB-75 34 µM | OVCAR-3 > 100 µM | SF-295 > 100 µM

NNC(=O)N/N=C1\CN(c2ccc(Cl)cc2Cl)C(=O)C(=O)C1c1nc2ccccc2o1 (stereo unspecified)
inactive: SK-OV-3 > 100 µM | M14 > 100 µM | IGROV-1 > 100 µM | HCT-116 > 100 µM | HCC 2998 > 100 µM | NCI-H460 > 100 µM | SF-268 > 100 µM | OVCAR-8 > 100 µM | COLO 205 > 100 µM | NCI-H226 > 100 µM | U-251 54.8 µM | UACC-62 > 100 µM | SW-620 > 100 µM | SNB-75 > 100 µM | OVCAR-3 > 100 µM | RPMI-8226 > 100 µM

Cc1cc(C)c(C(=O)O)c(N)c1O
inactive: SK-OV-3 > 100 µM | M14 > 100 µM | IGROV-1 > 100 µM | HCT-116 > 100 µM | HCC 2998 > 100 µM | SF-268 > 100 µM | OVCAR-8 > 100 µM | COLO 205 > 100 µM | NCI-H226 > 100 µM | U-251 > 100 µM | UACC-62 > 100 µM | RXF 393 > 100 µM | SW-620 > 100 µM | SNB-75 > 100 µM | OVCAR-3 > 100 µM | RPMI-8226 > 100 µM | SF-295 > 100 µM

COc1ccc(NC(=O)CC(=O)NN2C(=O)/C(=C/c3ccc(N(CCC#N)CCC#N)cc3C)N=C2/C=C\c2ccccc2)cc1
inactive: SK-OV-3 > 100 µM | M14 > 100 µM | IGROV-1 > 100 µM | HCT-116 > 100 µM | NCI-H460 > 100 µM | SF-268 > 100 µM | OVCAR-8 > 100 µM | COLO 205 > 100 µM | NCI-H226 > 100 µM | U-251 > 100 µM | UACC-62 > 100 µM | SW-620 > 100 µM | SNB-75 59.3 µM | OVCAR-3 > 100 µM | RPMI-8226 > 100 µM | SF-295 > 100 µM

Cc1cnc2ccc(C)c([N+](=O)[O-])c2c1NCCCN(C)C
inactive: SK-OV-3 > 100 µM | M14 > 100 µM | HCT-116 74.8 µM | HCC 2998 > 100 µM | NCI-H460 > 100 µM | SF-268 > 100 µM | OVCAR-8 > 100 µM | COLO 205 76.2 µM | NCI-H226 50 µM | U-251 > 100 µM | SW-620 > 100 µM | OVCAR-3 > 100 µM | RPMI-8226 > 100 µM | SF-295 > 100 µM

CCCCCCCCCCCCCC(=O)OC1CC(=O)OC1CO (stereo unspecified)
inactive: SK-OV-3 > 100 µM | M14 19.3 µM | IGROV-1 41 µM | HCT-116 27.4 µM | HCC 2998 60.3 µM | NCI-H460 34.2 µM | SF-268 64 µM | OVCAR-8 > 100 µM | COLO 205 > 100 µM | U-251 53.6 µM | UACC-62 19.2 µM | RXF 393 > 100 µM | SW-620 71.6 µM | SNB-75 79.6 µM | OVCAR-3 33.6 µM | RPMI-8226 36.5 µM | SF-295 21.5 µM

O=C(O)/C(Cl)=C(\Cl)C(=O)Nc1ccccc1
inactive: SK-OV-3 > 100 µM | M14 > 100 µM | IGROV-1 > 100 µM | HCT-116 > 100 µM | HCC 2998 > 100 µM | NCI-H460 > 100 µM | SF-268 > 100 µM | COLO 205 > 100 µM | NCI-H226 > 100 µM | U-251 > 100 µM | UACC-62 > 100 µM | RXF 393 > 100 µM | SW-620 > 100 µM | SNB-75 > 100 µM | OVCAR-3 > 100 µM | RPMI-8226 > 100 µM | SF-295 > 100 µM

CS(=O)(=O)OCCn1cnc2nc(NC(=O)c3ccccc3)[nH]c(=O)c21
inactive: SK-OV-3 > 100 µM | M14 > 100 µM | IGROV-1 > 100 µM | HCT-116 > 100 µM | NCI-H460 > 100 µM | SF-268 > 100 µM | OVCAR-8 > 100 µM | COLO 205 > 100 µM | NCI-H226 > 100 µM | U-251 > 100 µM | UACC-62 > 100 µM | RXF 393 > 100 µM | SW-620 > 100 µM | SNB-75 > 100 µM | OVCAR-3 > 100 µM | RPMI-8226 > 100 µM | SF-295 > 100 µM

O=S(=O)(C1=CC(S(=O)(=O)c2ccccc2)COC1)c1ccccc1 (stereo unspecified)
inactive: SK-OV-3 > 100 µM | M14 > 100 µM | IGROV-1 > 100 µM | HCT-116 > 100 µM | HCC 2998 > 100 µM | NCI-H460 > 100 µM | SF-268 > 100 µM | OVCAR-8 > 100 µM | COLO 205 > 100 µM | U-251 > 100 µM | UACC-62 > 100 µM | RXF 393 > 100 µM | SW-620 > 100 µM | SNB-75 > 100 µM | OVCAR-3 > 100 µM | RPMI-8226 > 100 µM | SF-295 > 100 µM

CCOC(=O)C1C(=O)c2ccccc2CN1Cc1ccccc1 (stereo unspecified)
inactive: SK-OV-3 > 100 µM | M14 > 100 µM | IGROV-1 > 100 µM | HCT-116 > 100 µM | HCC 2998 > 100 µM | NCI-H460 > 100 µM | SF-268 > 100 µM | OVCAR-8 > 100 µM | COLO 205 > 100 µM | NCI-H226 > 100 µM | U-251 > 100 µM | UACC-62 > 100 µM | SW-620 > 100 µM | SNB-75 > 100 µM | OVCAR-3 > 100 µM | RPMI-8226 > 100 µM | SF-295 > 100 µM
